Side chains are listed from the residue outwards. Ends that are not written are not given here. BAPTES = N-(3-(triethoxysilyl)propyl)buta-2,3-dienamide; Fe3O4 nanoparticle = not defined here
Experiments:
cTnI = cTnI (Homo sapiens, UniProt P19429); conditions: peptide evolved by phage display and in silico evolution; targets cTnI residues 114-144; read-out: binding affinity (Kd); cited from earlier work
[1] = target: T1, human serum albumin (HSA) (human, UniProt P02768 25-609); test: nanoparticle pull-down from human serum (10 mg) spiked with cTnI, SDS-PAGE and top-down LC/MS
T1 construct: mature; also called C-HSA; C-C-HSA
T1 sequence (P02768 25-609): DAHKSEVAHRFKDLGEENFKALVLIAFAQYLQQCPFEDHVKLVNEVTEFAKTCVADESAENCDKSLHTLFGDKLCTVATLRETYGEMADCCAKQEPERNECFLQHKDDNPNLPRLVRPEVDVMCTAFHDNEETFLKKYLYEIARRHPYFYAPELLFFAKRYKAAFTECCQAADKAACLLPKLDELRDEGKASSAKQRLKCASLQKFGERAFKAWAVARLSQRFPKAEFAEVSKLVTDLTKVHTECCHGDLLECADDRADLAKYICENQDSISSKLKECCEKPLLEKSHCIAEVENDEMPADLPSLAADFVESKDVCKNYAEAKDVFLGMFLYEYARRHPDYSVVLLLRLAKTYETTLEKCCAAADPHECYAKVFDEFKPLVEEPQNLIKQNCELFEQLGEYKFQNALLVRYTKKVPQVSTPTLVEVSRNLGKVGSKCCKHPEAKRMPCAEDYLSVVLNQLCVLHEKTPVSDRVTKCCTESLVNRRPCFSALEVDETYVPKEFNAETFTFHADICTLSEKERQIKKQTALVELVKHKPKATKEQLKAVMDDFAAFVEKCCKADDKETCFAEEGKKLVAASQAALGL
Method: To this end, cTnI enrichment was performed from human serum spiked-in with the cTnI extracted from the same donor, DCM, and post-mortem heart samples as in FIGS. 4-6. The endogenous cTnI obtained from the different human heart samples were used as the reference cTnI sources and served to mimic cTnI found in the blood.
Comparison of the cTnI enrichment performance of the NP-Pep platform against the agarose-mAb or agarose-Pep platform from human serum spiked with cTnI. The enrichment workflow was performed in a cold room held at 4° C. to minimize possible artifactual protein modifications, such as oxidation. NP-Control (NP-BAPTES),NP-Pep (Fe₃O₄-BAPTES-Peptide), Agarose-Control beads (no coupling), Agarose-Pep beads, and Agarose-mAb beads were incubated with in a protein loading mixture containing human male AB serum (10 mg) and sarcomeric tissue extract obtained from healthy donor heart tissue, diseased heart tissue of DCM, and post-mortem heart tissue containing 306 ng cTnI, 482 ng cTnI, and 465 ng cTnI in the protein extract, respectively. cTnI values were determined by ELISA quantification as previously described. The loading mixture (L), flow through (F), and elution mixture (E) were collected, desalted using a 10 kDa MWCO, and buffer exchanged prior to SDS-PAGE gel analysis or LC-MS analysis as described in the tissue enrichment protocol.

cTnI, sequence (P19429 whole entry, the tested form may be a part): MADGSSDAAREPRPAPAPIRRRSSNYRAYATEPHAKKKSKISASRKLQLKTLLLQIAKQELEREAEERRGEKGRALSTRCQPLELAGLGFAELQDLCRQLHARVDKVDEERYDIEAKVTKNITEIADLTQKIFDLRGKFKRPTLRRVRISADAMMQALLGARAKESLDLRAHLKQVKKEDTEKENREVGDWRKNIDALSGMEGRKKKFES

| Molecule | Kd (cTnI) [nM] | binding result [1] |
| --- | --- | --- |
| HWQIAYNEHQWQ | 0.27 |  |
| HWQIAYNEHQWQC([BAPTES-Fe3O4 nanoparticle]) (not fully specified; reading uncertain, Synthetic peptide (GenScript) found by phage display and in silico evolution (literature); Many copies on each nanoparticle (about 1.5 peptide/nm^2 in the text); In the assay it stood on the particle, not free; also called NP-Peptide; Fe3O4-Peptide NPs) |  | no binding |

From patent US20230035606A1, “AN ACCURATE AND COMPREHENSIVE CARDIAC TROPONIN I ASSAY ENABLED BY NANOTECHNOLOGY AND PROTEOMICS” (Wisconsin Alumni Research Foundation, priority 2019, published 2023)
